Here are results for four compounds from ChEMBL document CHEMBL1201862, “PubChem BioAssay data set” (2004).

Active and inactive are the calls of the source.

Test [1] deals with T1, Apoptotic protease-activating factor 1 (Homo sapiens, UniProt O14727).
T1 sequence (O14727 whole entry): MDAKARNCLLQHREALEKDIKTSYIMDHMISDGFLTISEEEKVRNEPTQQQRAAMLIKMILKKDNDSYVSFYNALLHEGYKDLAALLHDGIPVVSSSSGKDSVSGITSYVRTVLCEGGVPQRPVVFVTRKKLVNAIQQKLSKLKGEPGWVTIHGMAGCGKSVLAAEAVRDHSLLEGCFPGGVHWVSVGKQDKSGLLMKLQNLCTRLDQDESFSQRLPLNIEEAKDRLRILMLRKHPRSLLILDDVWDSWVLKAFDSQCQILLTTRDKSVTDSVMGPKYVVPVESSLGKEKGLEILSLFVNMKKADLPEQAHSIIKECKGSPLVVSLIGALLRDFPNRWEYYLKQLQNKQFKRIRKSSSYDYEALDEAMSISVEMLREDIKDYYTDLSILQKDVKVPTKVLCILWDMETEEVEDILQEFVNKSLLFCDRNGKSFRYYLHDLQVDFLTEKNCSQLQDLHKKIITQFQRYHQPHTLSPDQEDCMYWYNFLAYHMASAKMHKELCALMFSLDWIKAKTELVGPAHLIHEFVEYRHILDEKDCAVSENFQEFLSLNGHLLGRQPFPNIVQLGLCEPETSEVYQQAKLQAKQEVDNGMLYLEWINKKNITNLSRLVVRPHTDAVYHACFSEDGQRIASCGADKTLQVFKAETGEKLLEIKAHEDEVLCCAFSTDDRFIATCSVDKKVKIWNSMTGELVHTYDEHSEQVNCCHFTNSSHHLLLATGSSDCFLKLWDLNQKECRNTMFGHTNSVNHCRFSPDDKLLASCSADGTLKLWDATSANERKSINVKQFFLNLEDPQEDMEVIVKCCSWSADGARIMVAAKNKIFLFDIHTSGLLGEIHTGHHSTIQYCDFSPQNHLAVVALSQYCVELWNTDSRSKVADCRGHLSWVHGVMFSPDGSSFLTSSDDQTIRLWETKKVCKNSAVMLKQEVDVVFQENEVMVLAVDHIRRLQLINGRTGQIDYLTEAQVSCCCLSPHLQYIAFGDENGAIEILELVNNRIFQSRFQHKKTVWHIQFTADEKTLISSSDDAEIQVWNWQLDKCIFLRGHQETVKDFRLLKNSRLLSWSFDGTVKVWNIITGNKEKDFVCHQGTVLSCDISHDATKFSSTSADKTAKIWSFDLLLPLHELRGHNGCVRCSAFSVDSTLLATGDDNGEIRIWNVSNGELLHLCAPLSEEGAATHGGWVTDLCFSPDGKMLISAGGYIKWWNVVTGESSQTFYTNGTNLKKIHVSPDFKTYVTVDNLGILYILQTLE
The test is classed as functional.

Test [2] has as its target T2, Histone-lysine N-methyltransferase NSD2 (Homo sapiens, UniProt O96028).
T2 sequence (O96028 whole entry): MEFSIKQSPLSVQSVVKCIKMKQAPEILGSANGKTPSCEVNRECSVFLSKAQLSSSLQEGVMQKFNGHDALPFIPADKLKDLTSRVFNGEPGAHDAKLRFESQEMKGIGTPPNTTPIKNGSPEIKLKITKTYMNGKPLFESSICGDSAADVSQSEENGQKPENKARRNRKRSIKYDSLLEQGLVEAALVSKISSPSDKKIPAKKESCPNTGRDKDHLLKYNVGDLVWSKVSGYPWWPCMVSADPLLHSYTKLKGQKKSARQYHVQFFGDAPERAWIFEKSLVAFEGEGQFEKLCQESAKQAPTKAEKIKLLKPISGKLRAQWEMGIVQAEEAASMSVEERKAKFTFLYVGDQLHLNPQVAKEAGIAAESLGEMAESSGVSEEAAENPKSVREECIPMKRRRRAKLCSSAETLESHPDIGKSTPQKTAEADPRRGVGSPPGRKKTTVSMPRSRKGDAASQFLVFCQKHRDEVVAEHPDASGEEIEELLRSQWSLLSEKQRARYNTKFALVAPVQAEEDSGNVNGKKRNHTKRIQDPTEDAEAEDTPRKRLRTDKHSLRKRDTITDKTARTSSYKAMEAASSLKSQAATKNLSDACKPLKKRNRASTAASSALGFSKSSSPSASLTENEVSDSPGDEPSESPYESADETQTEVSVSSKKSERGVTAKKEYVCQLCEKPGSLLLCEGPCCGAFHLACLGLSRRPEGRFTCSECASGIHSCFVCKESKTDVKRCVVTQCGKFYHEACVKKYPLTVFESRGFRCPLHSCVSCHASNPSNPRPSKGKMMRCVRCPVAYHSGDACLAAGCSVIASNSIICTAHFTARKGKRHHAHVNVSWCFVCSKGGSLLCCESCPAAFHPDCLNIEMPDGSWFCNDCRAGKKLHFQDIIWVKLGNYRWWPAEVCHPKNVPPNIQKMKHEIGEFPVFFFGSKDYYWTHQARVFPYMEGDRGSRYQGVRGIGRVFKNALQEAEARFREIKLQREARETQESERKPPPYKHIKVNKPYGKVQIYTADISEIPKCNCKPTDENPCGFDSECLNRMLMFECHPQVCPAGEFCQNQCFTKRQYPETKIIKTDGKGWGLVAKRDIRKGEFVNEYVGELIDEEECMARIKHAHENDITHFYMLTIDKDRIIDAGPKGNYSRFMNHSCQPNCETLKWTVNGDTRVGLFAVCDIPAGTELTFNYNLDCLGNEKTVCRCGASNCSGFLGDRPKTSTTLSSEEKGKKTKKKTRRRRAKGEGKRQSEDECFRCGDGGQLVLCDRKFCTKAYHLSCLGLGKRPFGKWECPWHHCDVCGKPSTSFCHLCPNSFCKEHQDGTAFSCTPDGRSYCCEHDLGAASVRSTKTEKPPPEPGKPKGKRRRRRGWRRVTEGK
The test is classed as biochemical.

Test [3] has as its system Streptococcus sp. 'group A'. As to the kind of experiment: growth inhibition of control SK(-) GAS strain, dose response, counter-screen for streptokinase expression inhibitor project, luminescence, kanamycin, BacTiterGlo, confirmation (AID 1900). The test is classed as functional, organism-based. Background: Counterscreens check selectivity or assay interference.
The test system of a further test is Streptococcus. The experiment in a line: Group A Streptococcus viability loss, dose response, counter-screen for streptokinase expression inhibitor project, luminescence, BacTiterGlo (AID 1915).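 Note: potency for reduction of bacterial viability or growth.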 The class given is functional, organism-based.
The target of test [4] is Dual specificity tyrosine-phosphorylation-regulated kinase 1A (Rattus norvegicus, UniProt Q63470). The test is classed as biochemical, Homo sapiens.
Test [5] is described as follows: Shn3 3'UTR reporter inhibitors, dose response, cell-based, Clone20 osteoblasts, firefly luciferase, cherry-picked (AID 624132).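 Note: firefly luciferase luminescence from reporter carrying the Shn3 3'UTR in osteoblasts.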 The class given is functional.
In test [6] the target is Vascular endothelial growth factor receptor 3 (Homo sapiens, UniProt P35916). The class given is functional.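 Note: value from a kinome-wide profiling panel, with FLT4 as the panel member.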
Vascular endothelial growth factor receptor 3, sequence (P35916 whole entry): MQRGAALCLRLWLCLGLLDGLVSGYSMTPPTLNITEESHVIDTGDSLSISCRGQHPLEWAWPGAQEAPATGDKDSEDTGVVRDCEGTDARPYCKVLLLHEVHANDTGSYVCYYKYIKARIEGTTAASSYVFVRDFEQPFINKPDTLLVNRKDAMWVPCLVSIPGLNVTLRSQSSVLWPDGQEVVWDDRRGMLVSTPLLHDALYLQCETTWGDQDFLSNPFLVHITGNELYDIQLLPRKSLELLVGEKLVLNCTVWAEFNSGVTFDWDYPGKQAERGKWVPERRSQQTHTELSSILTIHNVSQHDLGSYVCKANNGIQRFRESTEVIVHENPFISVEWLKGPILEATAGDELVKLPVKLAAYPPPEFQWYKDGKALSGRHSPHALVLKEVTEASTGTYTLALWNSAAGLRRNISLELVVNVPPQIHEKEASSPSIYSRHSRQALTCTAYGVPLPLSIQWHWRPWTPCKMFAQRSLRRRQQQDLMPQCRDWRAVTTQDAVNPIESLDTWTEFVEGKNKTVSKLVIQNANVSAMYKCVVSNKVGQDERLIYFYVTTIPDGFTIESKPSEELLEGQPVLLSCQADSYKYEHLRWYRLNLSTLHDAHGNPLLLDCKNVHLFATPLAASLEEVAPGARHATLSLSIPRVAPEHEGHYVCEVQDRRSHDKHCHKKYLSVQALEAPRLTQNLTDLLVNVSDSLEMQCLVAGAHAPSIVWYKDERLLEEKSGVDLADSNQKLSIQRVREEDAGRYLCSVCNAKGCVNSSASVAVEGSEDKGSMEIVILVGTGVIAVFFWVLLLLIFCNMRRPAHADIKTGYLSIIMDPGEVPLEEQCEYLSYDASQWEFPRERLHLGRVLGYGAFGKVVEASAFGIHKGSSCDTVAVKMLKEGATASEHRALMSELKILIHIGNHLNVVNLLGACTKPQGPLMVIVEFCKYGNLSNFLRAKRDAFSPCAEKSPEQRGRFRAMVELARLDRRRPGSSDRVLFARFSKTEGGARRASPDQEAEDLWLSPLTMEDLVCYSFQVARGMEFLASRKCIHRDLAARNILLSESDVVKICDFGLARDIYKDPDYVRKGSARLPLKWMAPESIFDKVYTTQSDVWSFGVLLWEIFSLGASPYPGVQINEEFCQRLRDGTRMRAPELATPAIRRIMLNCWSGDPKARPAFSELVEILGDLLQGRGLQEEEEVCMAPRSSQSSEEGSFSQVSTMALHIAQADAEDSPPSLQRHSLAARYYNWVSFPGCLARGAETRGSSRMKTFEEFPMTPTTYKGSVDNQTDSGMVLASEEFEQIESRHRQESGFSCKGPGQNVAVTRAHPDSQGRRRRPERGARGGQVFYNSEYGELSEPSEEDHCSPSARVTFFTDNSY

The IC50 is the point on the concentration scale where inhibition reaches its midpoint. By AC50 is commonly meant the concentration giving half of the maximal activity seen. As for `Cc1ccc(C(=O)NC2(O)C(=O)c3ccccc3C2=O)cc1C`, the half-inhibitory concentration (IC50) in test [1] was 5.13 µM (active). Moreover, in test [2], the AC50 is 6.83 µM (active).
As usually defined, the EC50 is the midpoint of the concentration-response curve. As for `CC[C@@H](C)[C@H](CNC)NC[C@@H](Cc1cccc2ccccc12)NCCc1cccc(C(F)(F)F)c1`, the EC50 in test [3] is 4.8 µM (active); with Streptococcus, 7.12 µM (active). In addition, in test [1], the IC50 was 44.1 µM (active). The AC50 in test [4] was 79 µM (active); in test [5] it was 8.08 µM (active).
As to `Cc1ccc(S(=O)(=O)/N=C2\C=C(Nc3cccc(C(=O)O)c3)C(=O)c3ccccc32)cc1`, the values for the EC50 (in test [3]; in the test with Streptococcus) were 4.62 µM (active) and 14.3 µM (active), respectively. In test [1], the 50% inhibitory concentration (IC50) is 7.32 µM (active). In addition, the AC50 in test [4] is 2.57 µM (active); in test [2], 0.422 µM (active).
By Ki is commonly meant a measure of affinity in units of concentration, obtained from inhibition or displacement. In the case of `CC(C)(CO)CNc1nccc(-c2c(-c3ccc(F)cc3)nc3c(CC4CC4)nccn23)n1`, in test [6], the Ki was > 6.31 µM (inactive).
